According to patent US20240228512A1, “ACYCLIC OXAZEPINE COMPOUNDS COMPRISING A 6-AZA MOIETY AND USES THEREOF” (Genentech, Inc., priority 2022, published 2024):

Assays:
[1] = target: recombinant human KRAS wild type (SOS1-mediated nucleotide exchange) (Homo sapiens (Human), UniProt P01116); assay: KRAS biochemical assay, BODIPY-GDP exchange TR-FRET (WT-GDP HTRF)
SW620 cells = assay: SW620 3D proliferation assay (CellTiter-Glo); assay type: cell-based; details: Homo sapiens, SW-620, 168 h, SW620, 3D culture, 7 days, read-out: SW620 CTG IC50
In short: (§1)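 IC50 values were fitted with a 4-parameter logistic to luminescent ATP signal (CellTiter-Glo 3D) after 7-day compound exposure. Seeding was 3000 (96-well) or 1000 (384-well) cells/well in low-attachment plates with RPMI-1640, 10% FBS, 2 mM L-glutamine.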

HPAC cells = assay: HPAC 3D proliferation assay (CellTiter-Glo); assay type: cell-based; details: Homo sapiens, 168 h, 3D culture, 7 days, read-out: HPAC CTG IC50
In short: as §1

SW480 cells = assay: SW480 CTG proliferation assay; assay type: cell-based; details: Homo sapiens
[2] = target: recombinant human mutant KRas G12V (SOS1-mediated nucleotide exchange) (Homo sapiens (Human), UniProt P01116, G12V); assay: KRAS biochemical assay, BODIPY-GDP exchange TR-FRET (G12V-GDP HTRF)
H1975 cells = assay: H1975 CTG proliferation assay; assay type: cell-based; details: Homo sapiens, NCI-H1975, H1975, CTG
SW620 PERK = SW620 PERK assay; assay type: cell-based; details: Homo sapiens, SW-620, SW620, PERK

Sequence of recombinant human KRAS wild type (SOS1-mediated nucleotide exchange) (P01116-2 other isoform, or with tags, fused parts or gaps): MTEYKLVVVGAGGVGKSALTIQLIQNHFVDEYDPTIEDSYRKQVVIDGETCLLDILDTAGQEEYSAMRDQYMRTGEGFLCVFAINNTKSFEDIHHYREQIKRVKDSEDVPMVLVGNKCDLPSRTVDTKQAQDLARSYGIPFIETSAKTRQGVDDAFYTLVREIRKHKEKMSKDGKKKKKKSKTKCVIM
Sequence of recombinant human mutant KRas G12V (SOS1-mediated nucleotide exchange) (P01116-2 other isoform, or with tags, fused parts or gaps G12V): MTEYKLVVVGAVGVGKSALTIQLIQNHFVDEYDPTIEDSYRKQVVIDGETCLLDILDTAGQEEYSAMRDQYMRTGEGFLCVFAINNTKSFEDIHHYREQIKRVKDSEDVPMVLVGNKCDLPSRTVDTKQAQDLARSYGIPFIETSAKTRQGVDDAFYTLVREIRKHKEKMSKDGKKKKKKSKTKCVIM

Compound	IC50 [1] [nM]	IC50 (SW620 cells) [nM]	IC50 (SW480 cells) [nM]	IC50 [2] [nM]	IC50 (H1975 cells) [nM]	IC50 (SW620 PERK) [nM]	IC50 (HPAC cells) [nM]
Cc1cc(N)nc(-c2nc3c4c(nc(OC[C@@]56CCCN5C[C@H](F)C6)nc4c2F)N([C@H](C)c2cccnc2N)CCO3)c1C(F)(F)F [Example 6, 6-(10-((R)-1-(2-aminopyridin-3-yl)ethyl)-4-fluoro-2-(((2R,7aS)-2-fluorotetrahydro-1H-pyrrolizin-7a(5H)-yl)methoxy)-9,10-dihydro-8H-7-oxa-1,3,6,10-tetraazacyclohepta[de]naphthalen-5-yl)-4-methyl-5-(trifluoromethyl)pyridin-2-amine]	0.215	13.4	120	0.21	7.23	7.68	43.7
C#Cc1cccc2cc(O)cc(-c3nc4c5c(nc(OC[C@@]67CCCN6C[C@H](F)C7)nc5c3F)N([C@H](C)c3cccnc3N)CCO4)c12 [Example 7, 4-(10-((R)-1-(2-aminopyridin-3-yl)ethyl)-4-fluoro-2-(((2R,7aS)-2-fluorotetrahydro-1H-pyrrolizin-7a(5H)-yl)methoxy)-9,10-dihydro-8H-7-oxa-1,3,6,10-tetraazacyclohepta[de]naphthalen-5-yl)-5-ethynyinaphthalen-2-ol]	0.12	1.96	12	0.04	2.59	1.13	19.3
C[C@H](c1cccnc1N)N1CCOc2nc(-c3cc(O)cc4ccccc34)c(F)c3nc(OC[C@@]45CCCN4C[C@H](F)C5)nc1c23 [Example 26, 4-(10-((R)-1-(2-aminopyridin-3-yl)ethyl)-4-fluoro-2-(((2R,7aS)-2-fluorotetrahydro-1H-pyrrolizin-7a(5H)-yl)methoxy)-9,10-dihydro-8H-7-oxa-1,3,6,10-tetraazacyclohepta[de]naphthalen-5-yl)naphthalen-2-ol]	0.26	32.3	350	0.11	77	19.3	416
Cc1c(F)c(N)nc(-c2nc3c4c(nc(OC[C@@]56CCCN5C[C@H](F)C6)nc4c2F)N([C@H](C)c2cccnc2N)CCO3)c1C(F)(F)F [Example 604, 6-(10-((R)-1-(2-aminopyridin-3-yl)ethyl)-4-fluoro-2-(((2R,7aS)-2-fluorotetrahydro-1H-pyrrolizin-7a(5H)-yl)methoxy)-9,10-dihydro-8H-7-oxa-1,3,6,10-tetraazacyclohepta[de]naphthalen-5-yl)-3-fluoro-4-methyl-5-(trifluoromethyl)pyridin-2-amine]	0.225	5.33	> 200	0.099	283	2.93	26.5

More lines, main results first:

IC50 [1] [nM]	IC50 (SW620 cells) [nM]	IC50 (SW480 cells) [nM]	IC50 [2] [nM]	IC50 (H1975 cells) [nM]	IC50 (SW620 PERK) [nM]	Compound	IC50 (HPAC cells) [nM]
0.434	13.9	130	0.17	116	2.65	Cc1nc(N)cc(-c2nc3c4c(nc(OC[C@@]56CCCN5C[C@H](F)C6)nc4c2F)N([C@H](C)c2cccnc2N)CCO3)c1C(F)(F)F [Example 14, 4-(10-((R)-1-(2-aminopyridin-3-yl)ethyl)-4-fluoro-2-(((2R,7aS)-2-fluorotetrahydro-1H-pyrrolizin-7a(5H)-yl)methoxy)-9,10-dihydro-8H-7-oxa-1,3,6,10-tetraazacyclohepta[de]naphthalen-5-yl)-6-methyl-5-(trifluoromethyl)pyridin-2-amine]	76
0.415	5.72	58	0.21	14500	5.62	Cc1cc(N)c(F)c(-c2nc3c4c(nc(OC[C@@]56CCCN5C[C@]5(CC5(F)F)C6)nc4c2F)N([C@H](C)c2nccnc2N)CCO3)c1C(F)(F)F [Example 609]	34
0.175	1.92	18	0.14	951	2.02	Cc1nc(N)cc(-c2nc3c4c(nc(OC[C@@]56CCCN5C[C@]5(CC5(F)F)C6)nc4c2F)N([C@H](C)c2cccnc2N)CCO3)c1C(F)(F)F [Example 615]	12.3
0.195	8.46	> 200	0.09	2.59	4.64	Cc1c(F)c(N)cc(-c2nc3c4c(nc(OC[C@@]56CCCN5C[C@]5(CC5(F)F)C6)nc4c2F)N([C@H](C)c2cncnc2N)CCO3)c1C(F)(F)F [Example 616]	50.4
0.325	3.55	> 200	0.21	2.54	2.15	Cc1cc(N)nc(-c2nc3c4c(nc(OC[C@@]56CCCN5C[C@]5(CC5(F)F)C6)nc4c2F)N([C@H](C)c2cccnc2N)CCO3)c1C(F)(F)F [Example 635]	11.8
